Several values for one entry are separate records, joined by “and”; a condition that tells them apart may be missing. Identical values can stand only once. Like-named read-outs stand apart in the source and are kept apart here.
Tests used:
[1] = system: human bronchial smooth muscle cells; assay: Histamine-induced depolarization of human bronchial smooth muscle cells (FLIPR membrane potential); assay type: cell-based; settings: read-out: Histamine Depolarization of ASM Cells (IC50)
Procedure: Cultured human bronchial smooth muscle cells (BSMC) from Lonza were resuspended in Smooth Muscle Growth Medium-2 (SmGM-2; Lonza) at a concentration of 4 × 10^5 cells per ml. One hundred microliters of cells per well were plated in a black wall clear bottom polystyrene 96-well tissue culture plate and incubated in a 37°C humidified incubator with 5% CO2 overnight. Cells were serum starved by removing the SmGM-2 and replaced with one hundred microliters per well of Smooth Muscle Cell Basal Medium 2 (SmBM-2), phenol red-free (PromoCell), and incubated in a 37°C humidified incubator with 5% CO2 for 24 h. SmBM-2 was replaced with 100 microliters of fresh SmBM-2. Compounds were dissolved in 100% DMSO and serially diluted ½ log in a polypropylene 96-well microtiter plate (drug plate). Columns 6 and 12 were reserved as controls (HI control and LO control respectively) and contained only DMSO. Serially diluted compounds were diluted in SmBM-2 to 10X the final concentration. Twenty-five microliters of 10X compound titrations, and one hundred microliters of Blue dye-loading buffer (FLIPR Membrane Potential Assay Kit; Molecular Devices) were added to the cells. Cells were pre-incubated at room temperature with compound for 0.5 h. Five micromolar (10X) histamine was prepared in SmBM-2. Using the FLIPR-Tetra (Molecular Devices), three measurements of the baseline fluorescence were taken over the span of 1 min. Twenty-five microliters per well of 10X histamine were added to the first 11 columns of the plate containing the compound treated cells. Twenty-five microliters of SmBM-2 were added to column 12 for the LO control. Fifty-five fluorescence measurements were taken over the span of 14 min. The area under the curve (AUC) from the fluorescence kinetic traces (normalized to baseline fluorescence) were calculated. The amount of fluorescence in the presence of compound compared with that in the presence of DMSO vehicle alone (HI control) was calculated using the formula: % control (POC) = (compd – average LO)/(average HI – average LO)^∗100.

[2] = target: T1, hTMEM16A (abc) (Homo sapiens, UniProt Q5XXA6, DEL476-501); assay: medchem TMEM16A halide-sensitive YFP assay, 22-point dose-response; assay type: cell-based; design: expressed in transfected cells; settings: for scope of block of ionomycin-induced iodide eYFP quenching: up to 55.6 μM
T1 sequence (Q5XXA6 with tags, fused parts or gaps isoform Q5XXA6-5 DEL539-564): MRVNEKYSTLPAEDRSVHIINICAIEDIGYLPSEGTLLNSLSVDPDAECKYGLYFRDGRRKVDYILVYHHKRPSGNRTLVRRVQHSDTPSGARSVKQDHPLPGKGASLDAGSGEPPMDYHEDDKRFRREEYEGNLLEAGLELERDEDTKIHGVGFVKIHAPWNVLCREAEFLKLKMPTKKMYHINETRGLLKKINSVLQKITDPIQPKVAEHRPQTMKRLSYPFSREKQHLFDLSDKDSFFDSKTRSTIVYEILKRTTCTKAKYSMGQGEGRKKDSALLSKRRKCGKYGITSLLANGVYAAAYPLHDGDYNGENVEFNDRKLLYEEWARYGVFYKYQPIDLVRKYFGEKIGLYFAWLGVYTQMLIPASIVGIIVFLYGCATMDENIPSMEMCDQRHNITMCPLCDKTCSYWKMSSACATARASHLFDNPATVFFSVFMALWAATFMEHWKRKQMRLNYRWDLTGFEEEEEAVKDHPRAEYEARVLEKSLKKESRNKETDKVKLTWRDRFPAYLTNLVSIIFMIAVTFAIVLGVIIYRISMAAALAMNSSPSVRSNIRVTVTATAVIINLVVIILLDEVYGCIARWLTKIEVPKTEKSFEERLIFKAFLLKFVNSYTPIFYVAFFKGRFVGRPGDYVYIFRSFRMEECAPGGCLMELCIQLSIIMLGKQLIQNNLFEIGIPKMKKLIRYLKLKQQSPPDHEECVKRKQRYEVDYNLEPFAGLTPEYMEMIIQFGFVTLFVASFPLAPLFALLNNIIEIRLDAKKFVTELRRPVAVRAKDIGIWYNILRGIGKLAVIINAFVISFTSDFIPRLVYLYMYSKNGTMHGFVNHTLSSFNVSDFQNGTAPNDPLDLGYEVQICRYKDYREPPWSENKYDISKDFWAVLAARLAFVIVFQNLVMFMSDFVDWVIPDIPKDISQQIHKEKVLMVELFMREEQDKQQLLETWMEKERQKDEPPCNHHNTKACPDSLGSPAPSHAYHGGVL
Outline: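 HEK293T stably expressing eYFP (H149Q, I153L) and hTMEM16A(abc), preincubated 30 min at room temperature with compound in HBSS/10 mM HEPES pH 7.4.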

[3] = average, 22-point dose-response, iodide as permeant anion, read-out: TMEM16A eYFP Assay (IC50)
[4] = supplement, iodide as permeant anion, maximum concentration 55.6, read-out: TMEM16A eYFP Assay IC50

SMILES	IC50 [1] [nM]	IC50 [2, 3]	IC50 [2, 4] [nM]	scope of block of ionomycin-induced iodide eYFP quenching [2]	IC50 ([2]; TMEM16A eYFP Assay IC50, supplement, iodide as permeant anion, maximum concentration 55.6) [nM]	maximal percent inhibition in the TMEM16A/eYFP assay ([2]; iodide as permeant anion) [%]	times more potent than other antagonists in the halide-sensitive YFP assay ([2]; versus eight benchmark antagonists)
N#Cc1c(C(F)(F)F)cc(O)n2c1nc1ccccc12 [1PBC]	964 ± 756	1520 ± 1360 nM	1520 ± 1360	only partial inhibition			
CCc1oc2ccccc2c1C(=O)c1cc(Br)c(O)c(Br)c1 [Benzbromarone]	208 ± 248	1510 ± 504 nM		fully inhibited	1510 ± 504		
CC(C)(C)C1CCc2c(sc(NC(=O)c3ccco3)c2C(=O)O)C1 (stereo not shown) [CaCCinh-A01]	4760 ± 1230						
O=C(Nc1ccc([N+](=O)[O-])cc1)c1cc(Cl)ccc1O [Cpd 2]	44			only partially inhibited			
O=C(Nc1ccc([N+](=O)[O-])cc1)c1cc(Cl)c2ccccc2c1O [Cpd 3]	17	184 ± 89 nM		only partially inhibited			
COc1cc([N+](=O)[O-])ccc1NC(=O)c1cc(Cl)c2ccccc2c1O [Cpd 4]	178 ± 7	901 ± 524 nM	954 ± 648	only partial inhibition			
O=C(Nc1ccc(Cl)cc1)c1cc(Cl)ccc1O [Cpd 5]	71 ± 20	370 ± 131 nM	370 ± 131	only partially inhibited			
Oc1ccc(Cl)cc1Cc1cc(Cl)ccc1O [Dichlorophen]	938 ± 360	4370 ± 1210 nM	4360 ± 1210	fully inhibited			
COc1cc(Nc2ccc([N+](=O)[O-])cc2C(=O)O)cc2ccccc12 [MONNA]	201 ± 162	6300 ± 1470 nM	6290 ± 1470	fully inhibited			
O=C(Nc1ncc([N+](=O)[O-])s1)c1cccs1 [NTTP]	25200 ± 5440	2480 ± 1240 nM					
O=C(Nc1ccc([N+](=O)[O-])cc1Cl)c1cc(Cl)ccc1O [Niclosamide]	389 ± 478	130 nM and 132 nM	132 ± 67.1	only partial inhibition		62.4 ± 12.0	10–200 times
O=C(O)c1cccnc1Nc1cccc(C(F)(F)F)c1 [Niflumic Acid]	6280 ± 1590	26600 ± 11800 nM					
CCc1c(C)nc(SCC(=O)Nc2nc(-c3ccc(OC)cc3)cs2)[nH]c1=O [T16Ainh-A01]	> 30000	> 50000 nM	> 55600	inactive			
O=C(Nc1ncc([N+](=O)[O-])s1)c1ccccc1O [Tizoxanide]		398 nM		partially inhibiting			

— publication PMC6382696, “Drug Repurposing: The Anthelmintics Niclosamide and Nitazoxanide Are Potent TMEM16A Antagonists That Fully Bronchodilate Airways” (Frontiers in Pharmacology, 2019)
